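Test compounds were applied to cells in 96-well plates for 48 hours at 5 doses. At the TGI there is no net growth.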
Assays:
Assay in all cases: NCI-60 cell line screen, 48 h
[1] = test system: 786-0 renal
[2] = test system: A498 renal
[3] = test system: A549 NSCLC
[4] = test system: ACHN renal
[5] = test system: BT-549 breast
[6] = test system: CAKI-1 renal
[7] = test system: CCRF-CEM leukemia
[8] = test system: COLO 205 colon
[9] = test system: DU-145 prostate
[10] = test system: HCC-2998 colon
[11] = test system: HCT-116 colon
[12] = test system: HCT-15 colon
[13] = test system: HL-60(TB) leukemia
[14] = test system: HOP-62 NSCLC
[15] = test system: HOP-92 NSCLC
[16] = test system: HT29 colon
[17] = test system: K-562 leukemia
[18] = test system: KM12 colon
[19] = test system: M14 melanoma
[20] = test system: MALME-3M melanoma
[21] = test system: MCF7 breast
[22] = test system: MDA-MB-231 breast
[23] = test system: MDA-MB-435
[24] = test system: MDA-N
[25] = test system: MOLT-4 leukemia
[26] = test system: NCI-H23 lung
[27] = test system: NCI-H460 lung
[28] = test system: NCI-H522 lung
[29] = test system: NCI/ADR-RES ovarian
[30] = test system: OVCAR-3 ovarian
[31] = test system: OVCAR-4 ovarian
[32] = test system: OVCAR-5 ovarian
[33] = test system: OVCAR-8 ovarian
[34] = test system: PC-3 prostate
[35] = test system: RPMI-8226 leukemia
[36] = test system: RXF 393 renal
[37] = test system: SF-268 CNS
[38] = test system: SF-295 CNS
[39] = test system: SF-539 CNS
[40] = test system: SK-MEL-2 melanoma
[41] = test system: SK-MEL-28 melanoma
[42] = test system: SK-MEL-5 melanoma
[43] = test system: SK-OV-3 ovarian
[44] = test system: SN12C renal
[45] = test system: SNB-19 CNS
[46] = test system: SW-620 colon
[47] = test system: T-47D breast
[48] = test system: TK-10 renal
[49] = test system: U251 CNS
[50] = test system: UACC-257 melanoma
[51] = test system: UACC-62 melanoma
[52] = test system: UO-31 renal
[53] = test system: EKVX NSCLC
[54] = test system: HS 578T breast
[55] = test system: IGROV1 ovarian
[56] = test system: LOX IMVI melanoma
[57] = test system: NCI-H226 lung
[58] = test system: SNB-75 CNS

Measured: TGI

Cc1ccc(-c2cc(-c3ccccc3)nc(N)n2)c(O)c1
not listed: [53] | [54] | [55] | [56] | [57] | [58]
> 100 µM: all other assays above

Cc1cn(CCCC2=NCCCN2)c(=O)[nH]c1=O
not listed: [5] | [13]
> 100 µM: all other assays above

Source: PubChem BioAssay (NCI)
